Laboratory results published in patent US12673975B2, “Cyclic peptide, cell scaffold material, cell separating material, and medium” (FUJIFILM Corporation, priority 2019, dated 2026).
Where two headings read alike, the source gives them in different places. Starred links: 1 amine or outer side, 2 acyl side, 3 side chain; linkers in the order of their positions; H or OH if unused. Positions of bridges follow the written chain, without caps; N, C: chain ends. Non-standard residues stand in square brackets, D forms with d. Residues, ends and D or L forms follow the SMILES beside them. Pen = CC(C)(S)[C@H](N)C(=O)O; hCys = N[C@@H](CCS)C(=O)O; Dab = NCC[C@H](N)C(=O)O; Dap = NC[C@H](N)C(=O)O; X1 = O=C(C[*:2])[*:1]; X2 = O=C(C[*:1])[*:2]

Columns and labels:
human integrin αvβ5 = human integrin αvβ5 (Homo sapiens, UniProt P06756+P18084); assay: Evaluation of integrin binding property (surface plasmon resonance, Biacore 3000, immobilized cyclic peptide)
Chain of human integrin αvβ5 (P06756 31-1048): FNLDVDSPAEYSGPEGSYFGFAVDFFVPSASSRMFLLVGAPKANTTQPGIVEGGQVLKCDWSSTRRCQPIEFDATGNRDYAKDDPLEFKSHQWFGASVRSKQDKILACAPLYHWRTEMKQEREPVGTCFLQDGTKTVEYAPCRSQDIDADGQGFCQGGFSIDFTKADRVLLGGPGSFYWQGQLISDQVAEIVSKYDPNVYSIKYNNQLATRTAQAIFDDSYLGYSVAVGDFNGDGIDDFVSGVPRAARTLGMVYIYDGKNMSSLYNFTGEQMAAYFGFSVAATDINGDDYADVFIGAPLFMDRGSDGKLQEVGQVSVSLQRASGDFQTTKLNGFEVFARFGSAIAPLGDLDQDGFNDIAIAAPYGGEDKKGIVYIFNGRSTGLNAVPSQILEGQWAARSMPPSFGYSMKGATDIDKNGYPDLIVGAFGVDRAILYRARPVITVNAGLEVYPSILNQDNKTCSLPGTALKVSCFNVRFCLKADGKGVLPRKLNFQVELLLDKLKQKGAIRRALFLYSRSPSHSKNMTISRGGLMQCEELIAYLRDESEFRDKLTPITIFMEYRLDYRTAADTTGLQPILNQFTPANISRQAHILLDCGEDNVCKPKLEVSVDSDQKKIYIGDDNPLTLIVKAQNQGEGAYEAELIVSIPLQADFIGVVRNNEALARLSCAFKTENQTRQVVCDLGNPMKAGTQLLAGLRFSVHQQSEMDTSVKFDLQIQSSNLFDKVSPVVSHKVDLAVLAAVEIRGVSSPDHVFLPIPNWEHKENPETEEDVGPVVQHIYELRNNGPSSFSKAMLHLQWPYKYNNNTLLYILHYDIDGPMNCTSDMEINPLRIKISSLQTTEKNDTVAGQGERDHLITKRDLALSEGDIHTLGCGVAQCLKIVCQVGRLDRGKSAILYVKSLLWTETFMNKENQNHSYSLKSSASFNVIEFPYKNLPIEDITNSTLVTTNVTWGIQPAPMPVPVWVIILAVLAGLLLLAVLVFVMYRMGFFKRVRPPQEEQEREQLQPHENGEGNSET
Chain of human integrin αvβ5 (P18084 24-799): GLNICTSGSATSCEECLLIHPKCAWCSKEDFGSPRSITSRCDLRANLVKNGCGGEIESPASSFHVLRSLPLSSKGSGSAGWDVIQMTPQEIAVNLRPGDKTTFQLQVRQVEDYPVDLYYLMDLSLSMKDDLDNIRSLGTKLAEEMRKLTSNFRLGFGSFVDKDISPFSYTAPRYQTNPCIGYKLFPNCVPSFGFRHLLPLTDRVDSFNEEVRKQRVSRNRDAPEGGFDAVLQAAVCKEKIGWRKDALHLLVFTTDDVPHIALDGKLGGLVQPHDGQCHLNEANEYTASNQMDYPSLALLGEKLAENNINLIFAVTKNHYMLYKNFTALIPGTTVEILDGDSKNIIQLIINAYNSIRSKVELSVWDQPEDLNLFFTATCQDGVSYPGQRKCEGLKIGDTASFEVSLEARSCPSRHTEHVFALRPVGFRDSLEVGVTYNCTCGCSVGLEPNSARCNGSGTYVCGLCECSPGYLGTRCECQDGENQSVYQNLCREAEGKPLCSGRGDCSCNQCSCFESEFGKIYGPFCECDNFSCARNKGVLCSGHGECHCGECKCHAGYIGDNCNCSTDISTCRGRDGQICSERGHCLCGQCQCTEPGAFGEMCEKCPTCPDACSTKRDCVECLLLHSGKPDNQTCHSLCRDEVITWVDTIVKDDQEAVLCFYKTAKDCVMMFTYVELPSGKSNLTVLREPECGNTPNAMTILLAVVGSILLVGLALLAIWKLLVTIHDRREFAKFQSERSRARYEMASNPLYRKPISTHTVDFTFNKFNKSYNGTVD
Summary of the method: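 SPR with cyclic peptide amine-coupled via EDC/NHS to a CM5 chip, blank channel as reference. Integrin αvβ5 at 30, 100, 300 and 1,000 nM injected 10 min at 25 °C in HEPES buffer pH 7.4 with 5 mM MgCl2, 30 min buffer flow, EDTA regeneration; Kd from reference-subtracted signals, graded by category.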

[1] = Evaluation of molecule stability (alkali treatment, residual rate by LC/MS); assay type: physicochemical; conditions: for Performance evaluation: Stability (residual rate of cyclic peptide after alkali treatment): 500 μM peptide aqueous solution plus equivalent of 1 M sodium hydroxide, 15° C., 3 hours, LC/MS peak area; for Stability (molecule stability, residual rate of the cyclic peptide rank): alkali treatment, residual rate by LC/MS
Summary of the method: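 500 μM aqueous cyclic peptide mixed with an equal volume of 1 M NaOH and held 3 h at 15 °C. Residual rate is total LC/MS peak area after treatment relative to untreated (100%), using a C18 column, pH 3 ammonium formate/acetonitrile gradient, 45 °C, ESI±.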

[2] = SPR, 25° C., HEPES buffer with 5 mM magnesium chloride, integrin 30-1,000 nM, read-out: Performance evaluation: Binding activity (dissociation constant between the cyclic peptide and human integrin αvβ5)
[3] = surface plasmon resonance, immobilized cyclic peptide, human integrin αvβ5, read-out: Binding activity (integrin binding property, dissociation constant rank)

| SMILES | Kd (human integrin αvβ5; [2]) [nM] | Kd (human integrin αvβ5; [3]) [nM] | Performance evaluation: Stability (residual rate of cyclic peptide after alkali treatment) [1] | Stability (molecule stability, residual rate of the cyclic peptide rank) [1] |
| --- | --- | --- | --- | --- |
| CC(C)[C@@H]1NC(=O)[C@@H](NC(=O)[C@H](C)NC(=O)[C@H](CCCCN)NC(=O)[C@H](CCCCN)NC(=O)[C@@H](N)CCCCN)CCNC(=O)CSC[C@@H](C(=O)N[C@@H](C)C(=O)O)NC(=O)[C@H](C)NC(=O)[C@H](Cc2ccccc2)NC(=O)[C@H]([C@@H](C)O)NC(=O)[C@H](CC(=O)O)NC(=O)CNC(=O)[C@H](CCCNC(=N)N)NC(=O)[C@@H]2CCCN2C1=O [Cyclic peptide 142, KKKA(Dab(acetyl))VPRGDTFA(C)A] (H-KKKA[Dab]VPRGDTFACA-OH; linker 5-14 via X1) | – | < 50 | – | C (The residual rate of the cyclic peptide is 30% or more and less than 50%.) |
| CC(C)[C@@H]1NC(=O)[C@@H](NC(=O)[C@H](C)NC(=O)[C@H](CCCCN)NC(=O)[C@H](CCCCN)NC(=O)[C@@H](N)CCCCN)CCSCC(=O)NCC[C@@H](C(=O)N[C@@H](C)C(=O)O)NC(=O)[C@H](C)NC(=O)[C@H](Cc2ccccc2)NC(=O)[C@H](C)NC(=O)[C@H](CC(=O)O)NC(=O)CNC(=O)[C@H](CCCNC(=N)N)NC(=O)[C@@H]2CCCN2C1=O [Cyclic peptide 91, KKKA-(Hcy)-VPRGDAFA(Dab(acetyl))A] (H-KKKA[hCys]VPRGDAFA[Dab]A-OH; linker 5-14 via X2) | < 50 | – | A (The residual rate of the cyclic peptide is 70% or more.) | – |
| CC(C)C[C@@H]1NC(=O)[C@@H](NC(=O)CNC(=O)[C@H](CCCCN)NC(=O)[C@H](CCCCN)NC(=O)[C@@H](N)CCCCN)CCSCC(=O)NCC[C@@H](C(=O)N[C@@H](C)C(=O)O)NC(=O)[C@H](CCCNC(=N)N)NC(=O)[C@H](Cc2ccccc2)NC(=O)[C@H](CO)NC(=O)[C@H](CC(=O)O)NC(=O)CNC(=O)[C@H](CCCNC(=N)N)NC(=O)[C@@H]2CCCN2C1=O [Cyclic peptide 28, KKKG-(Hcy)-LPRGDSFR(Dab(acetyl))A] (H-KKKG[hCys]LPRGDSFR[Dab]A-OH; linker 5-14 via X2) | 50 to 100 | – | A (The residual rate of the cyclic peptide is 70% or more.) | – |
| CC[C@H](C)[C@@H]1NC(=O)[C@H](C)NC(=O)[C@@H](NC(=O)CNC(=O)[C@H](CCCCN)NC(=O)[C@H](CCCCN)NC(=O)[C@@H](N)CCCCN)CCSCC(=O)NCC[C@@H](C(=O)N[C@@H](C)C(=O)O)NC(=O)[C@H](C)NC(=O)[C@H](CCCNC(=N)N)NC(=O)[C@H](Cc2ccccc2)NC(=O)[C@H](CC(N)=O)NC(=O)[C@H](CC(=O)O)NC(=O)CNC(=O)[C@H](CCCNC(=N)N)NC(=O)[C@@H]2CCCN2C1=O [Cyclic peptide 20, KKKG-(Hcy)-AIPRGDNFRA(Dab(acetyl))A] (H-KKKG[hCys]AIPRGDNFRA[Dab]A-OH; linker 5-16 via X2) | 50 to 100 | – | A (The residual rate of the cyclic peptide is 70% or more.) | – |
| CC[C@H](C)[C@@H]1NC(=O)[C@H](C)NC(=O)[C@@H](NC(=O)CNC(=O)[C@H](CCCCN)NC(=O)[C@H](CCCCN)NC(=O)[C@@H](N)CCCCN)CCSCC(=O)NCC[C@@H](C(=O)N[C@@H](C)C(=O)O)NC(=O)[C@H](C)NC(=O)[C@H](CCCNC(=N)N)NC(=O)[C@H](Cc2ccccc2)NC(=O)[C@H]([C@@H](C)O)NC(=O)[C@H](CC(=O)O)NC(=O)CNC(=O)[C@H](CCCNC(=N)N)NC(=O)[C@@H]2CCCN2C1=O [Cyclic peptide 67, KKKG-(Hcy)-AIPRGDTFRA(Dab(acetyl))A] (H-KKKG[hCys]AIPRGDTFRA[Dab]A-OH; linker 5-16 via X2) | < 50 | – | A (The residual rate of the cyclic peptide is 70% or more.) | – |

Now from value to molecule, other results behind:

| Kd (human integrin αvβ5; [2]) [nM] | Kd (human integrin αvβ5; [3]) [nM] | SMILES | Performance evaluation: Stability (residual rate of cyclic peptide after alkali treatment) [1] | Stability (molecule stability, residual rate of the cyclic peptide rank) [1] |
| --- | --- | --- | --- | --- |
| < 50 | – | CC[C@H](C)[C@@H]1NC(=O)[C@@H](NC(=O)[C@H](CCCCN)NC(=O)[C@H](CCCCN)NC(=O)[C@@H](N)CCCCN)CCSCC(=O)NCC[C@@H](C(=O)N[C@@H](CC(=O)O)C(=O)O)NC(=O)[C@H](CCCNC(=N)N)NC(=O)[C@H](Cc2ccccc2)NC(=O)[C@H](CC(N)=O)NC(=O)[C@H](CC(=O)O)NC(=O)CNC(=O)[C@H](CCCNC(=N)N)NC(=O)[C@@H]2CCCN2C1=O [Cyclic peptide 5, KKK-(Hcy)-IPRGDNFR(Dab(acetyl))D] (H-KKK[hCys]IPRGDNFR[Dab]D-OH; linker 4-13 via X2) | A (The residual rate of the cyclic peptide is 70% or more.) | – |
| – | 50 to 100 | CC[C@H](C)[C@@H]1NC(=O)[C@@H](NC(=O)CNC(=O)[C@H](CCCCN)NC(=O)[C@H](CCCCN)NC(=O)[C@@H](N)CCCCN)C(C)(C)SCC(=O)NCCCC[C@@H](C(=O)N[C@@H](C)C(=O)O)NC(=O)[C@H](CCCNC(=N)N)NC(=O)[C@H](Cc2ccccc2)NC(=O)[C@H]([C@@H](C)O)NC(=O)[C@H](CC(=O)O)NC(=O)CNC(=O)[C@H](CCCNC(=N)N)NC(=O)[C@@H]2CCCN2C1=O [Cyclic peptide 131, KKKG-(Pen)-IPRGDTFR(Lys(acetyl))A] (H-KKKG[Pen]IPRGDTFRKA-OH; linker 5-14 via X2) | – | A (The residual rate of the cyclic peptide is 70% or more.) |
| 50 to 100 | – | CC[C@H](C)[C@@H]1NC(=O)[C@@H](NC(=O)[C@H](CCCCN)NC(=O)[C@H](CCCCN)NC(=O)[C@@H](N)CCCCN)CNC(=O)CSCC[C@@H](C(=O)O)NC(=O)[C@H](CCCNC(=N)N)NC(=O)[C@H](Cc2ccccc2)NC(=O)[C@H](CC(N)=O)NC(=O)[C@H](CC(=O)O)NC(=O)CNC(=O)[C@H](CCCNC(=N)N)NC(=O)[C@@H]2CCCN2C1=O [Cyclic peptide 12, KKK(Dap(acetyl))IPRGDNFR-(Hcy)] (H-KKK[Dap]IPRGDNFR[hCys]-OH; linker 4-13 via X1) | B (The residual rate of the cyclic peptide is 50% or more and less than 70%.) | – |
| – | < 50 | CC(C)[C@@H]1NC(=O)[C@@H](NC(=O)[C@H](C)NC(=O)[C@H](CCCCN)NC(=O)[C@H](CCCCN)NC(=O)[C@@H](N)CCCCN)CCNC(=O)CSCC[C@@H](C(=O)N[C@@H](C)C(=O)O)NC(=O)[C@H](C)NC(=O)[C@H](Cc2ccccc2)NC(=O)[C@H]([C@@H](C)O)NC(=O)[C@H](CC(=O)O)NC(=O)CNC(=O)[C@H](CCCNC(=N)N)NC(=O)[C@@H]2CCCN2C1=O [Cyclic peptide 122, KKKA(Dab(acetyl))VPRGDTFA-(Hcy)-A] (H-KKKA[Dab]VPRGDTFA[hCys]A-OH; linker 5-14 via X1) | – | A (The residual rate of the cyclic peptide is 70% or more.) |
| 50 to 100 | – | CC[C@H](C)[C@@H]1NC(=O)[C@@H](NC(=O)CNC(=O)[C@H](CCCCN)NC(=O)[C@H](CCCCN)NC(=O)[C@@H](N)CCCCN)CCSCC(=O)NCC[C@@H](C(=O)N[C@@H](C)C(=O)O)NC(=O)[C@H](Cc2ccccc2)NC(=O)[C@H](CC(N)=O)NC(=O)[C@H](CC(=O)O)NC(=O)CNC(=O)[C@H](CCCNC(=N)N)NC(=O)[C@@H]2CCCN2C1=O [Cyclic peptide 6, KKKG-(Hcy)-IPRGDNF(Dab(acetyl))A] (H-KKKG[hCys]IPRGDNF[Dab]A-OH; linker 5-13 via X2) | A (The residual rate of the cyclic peptide is 70% or more.) | – |
